Source: patent publication US4499107A, “Method for treating infected renal calculosis” (Dr. L^o. Zambeletti, S.p.A., priority 1981, dated 1985)
Where two headings read alike, the source gives them in different places.

How the values were obtained:
[1] = tested on: urease-producing bacteria; conditions: renal lithiasis sustained by urease-producing bacteria; cited from earlier work
[2] = tested on: mouse embryonal cell cultures; conditions: 1,1.10^-4 M; cited from earlier work
[3] = rabbit, in vivo; for duration of the reduction of the arterial pressure: po, 100 mg/kg
[4] = design: species or system "Wistar" rats; conditions: rat, in vivo, po, 200 mg/kg
Description: Subacute toxicity. A test lasting 4 weeks has been carried out on the two compounds administered at the dose of 200 mg/kg by oral route to groups of "Wistar" rats, 8 males and 8 females, with daily observation of the behavior, of health status, of feed and water consumption and, twice a week, of the body weight of animals. At the end of 4 weeks the animals have been sacrificed and autopsy and haematological and haematochemical examinations have been performed on them. For all the duration of the test, no anomaly has been noticed in the behavior of both AHA-treated and PHA-treated animals.

[5] = tested on: Salmonella typhimurium (TA 100 and TA 98); conditions: strains TA 100 and TA 98, 40,000 μg/plate; cited from earlier work
[6] = pregnant female rats, 12th day of pregnancy, cited from earlier work
[7] = Teratogenesis in pregnant female rats
Acute toxicity = conditions: mouse, in vivo
[8] = tested on: chinese hamster embryonal cell cultures; conditions: 1,1.10^-4 M; cited from earlier work
[9] = tested on: Salmonella typhimurium (TA 100 and TA 98); assay: Ames test; assay type: cell-based
Description: In the Belgian Pat. No. 878,836, Jan. 16, 1980, it is moreover reported that AHA is mutagenic according to the Ames test on two strains of Salmonella typhimurium (TA 100 and TA 98), at the dose of 40,000 μg/plate.
(§1) Mutagenesis. As far as AHA is concerned, it has been previously reported. […] The propionhydroxamic acid is non mutagenic also in the Ames test.

[10] = tested on: urinary infection caused by urease-producing bacteria; assay type: in vivo, patient
Description: The results shown above, pointing out a globally superimposable behavior of AHA and PHA, with the exclusion of the fundamental aspects of the mutagenesis and of the theratogenesis, which are absent in propionhydroxamic acid, prompted to test this latter compound on some clinical cases, hereunder reported. (1) Urinary infection caused by urease-producing bacteria; (2) relapsing renal calculosis.

[11] = tested on: mouse embryonal cell cultures; assay: Mutagenesis: morphological changes of the chromosomes in embryonal cell cultures; assay type: cell-based; conditions: 1.1 10^-4 M, 24-72 hours of incubation
Description: as §1

[12] = tested on: chinese hamster embryonal cell cultures; assay: as above; assay type: cell-based; conditions: 1.1 10^-4 M, 24-72 hours of incubation
Description: as §1

[13] = rat, in vivo, ip, 300 mg/kg
[14] = Case 1, 500 mg/die combined with antibiotic therapy
[15] = Case 2, 375 mg/die combined with antibiotic therapy
[16] = Case 4, 500 mg/die with antibiotic therapy, after 3 months
[17] = Case 5, 500 mg/die with antibiotic therapy

In the case of `CC(=O)NO` [AHA, acetohydroxamic acid, reference compound], the “drug's action on urinary ammonium and urinary pH” value [1] is given as “decrease of urinary ammonium and urinary pH”, the “morphological changes of the chromosomes provoked by damages at DNA” value [2] is given as “causes morphological changes of the chromosomes” and the “reduction of the mean arterial pressure” value ([3]; 50 mg/kg) is given as 15%. The “time after administration at which the reduction of mean arterial pressure is still present” value ([3]; 50 mg/kg) was at least 120 min, the “duration of the reduction of the arterial pressure” value [3] was over 120 min and the “autoptical examination of the main organs (thymus, testes, heart, liver)” value [4] was “hypotrophy of the main organs”. The behavior of animals [4] was “no anomaly”, the feed consumption [4] was “decrease” and the “haematochemical parameters, AHA versus PHA” value [4] was “No remarkable differences”. For the same compound, the “macroscopic lesion of the main organs” value [4] was “no macroscopic lesion”, the “mutagenicity in the Ames test” value [5] was “mutagenic” and the fetuses with deformations ([6]; i.p. 750 mg/kg una tantum) was 50%. For the same compound, the deaths of fetuses ([6]; i.p. 1000 mg/kg una tantum) was 55%, the “deformations in the survived fetuses” value ([6]; i.p. 1000 mg/kg una tantum) was 100% and the reabsorption of fetuses ([6]; i.p. 1500 mg/kg una tantum) was 100%. For the same compound, the “dead fetuses (comparison value)” value ([7]; dose for AHA not stated at this place) was 50%, the LD50 (Acute toxicity; po) was 2740 mg/kg and the “morphological changes of the chromosomes provoked by damages at DNA” value [8] was “causes morphological changes of the chromosomes”.
For `CCC(=O)NO` [PHA, propionhydroxamic acid], the “mutagenicity in the Ames test” value [9] was “non mutagenic”, the blood pressure ([3]; 50 mg/kg) was “does not change” and the heart rate ([3]; 50 mg/kg) was “does not change”. The “duration of the reduction of the arterial pressure” value [3] was 10 to 30 min, the “autoptical examination of the main organs (thymus, testes, heart, liver)” value [4] was “hypotrophy of the main organs” and the behavior of animals [4] was “no anomaly”. The feed consumption [4] was “decrease”, the “haematochemical parameters, AHA versus PHA” value [4] was “No remarkable differences” and the “macroscopic lesion of the main organs” value [4] was “no macroscopic lesion”. For the same compound, the urinary ammonium values [10, 14] was “normalization”, the “urinary pH” value [10, 14] was “normalization” and the urinary cultures ([10]; Case 1, 500 mg/die combined with antibiotic therapy, Proteus mirabilis) was “sterilization of urinary cultures”. For the same compound, the “effect of temporary interruption of the drug” value ([10]; Case 2, 375 mg/die) was “reapparence of urease producing bacteria (Klebsiella)”, the urinary ammonium values [10, 15] was “decrease of urinary ammonium values” and the urinary infection [10, 15] was “resolution of urinary infection”. For the same compound, the urinary acidification ([10]; Case 2, 375 mg/die combined with antibiotic therapy, Proteus mirabilis and Klebsiella) was “sufficient urinary acidification”, the “volumetric increase of the lithiasic relapse” value ([10]; Case 2, 375 mg/die, during 5 months' therapy) was “not observed” and the “lithiasic relapse at the left kidney” value ([10]; Case 3) was “Absence of lithiasic relapse”. The crystalluria ([10]; Case 3, combination) was “non pathologic crystalluria”, the urinary ammonium ([10]; Case 3, combination, Proteus mirabilis) was “normalization” and the “lithiasic relapse at the left kidney” value ([10]; Case 4, 500 mg/die) was “no lithiasic relapse”. For the same compound, the crystalluria [10, 16] was “normalization”, the “urinary pH” value [10, 16] was “normalization” and the ammonium values ([10]; Case 4, 500 mg/die with antibiotic therapy, after 3 months, Proteus mirabilis and Klebsiella) was “normalization”. For the same compound, the “growth of the already present lithiasic formation” value [10, 17] was “stopping of the growth”, the “onset of further relapses” value [10, 17] was “lacking onset of further relapses” and the urinary infection [10, 17] was “resolution of urinary infection”. The “urinary pH” value [10, 17] was “normalization”, the urinary ammonium ([10]; Case 5, 500 mg/die with antibiotic therapy, Proteus mirabilis) was “normalization” and the “morphologic change of the chromosomes provoked by damages at DNA” value [11] was “did not induce”. The “morphologic change of the chromosomes provoked by damages at DNA” value [12] was “did not induce”, the dead fetuses ([7]; intraperitoneal, once on the 13th day of pregnancy, 300 mg/kg) was 55% and the LD50 (Acute toxicity; oral route, confidence limits in brackets) was 2370 mg/kg. For the same compound, the “morphological development of the survived fetuses” value [13] was “perfectly normal development”.
